Assay results from patent US6355799B1, “Substituted benzene compounds, process for their preparation, and herbicidal and defoliant compositions containing them” (ISK Americas Incorporated, priority 1997, dated 2002).

Legend:
Type in all cases: in vivo
[1] = system: green foxtail (Setaria viridis, SETVI); experiment: Post-emerge test, greenhouse herbicide activity screening; details: post-emerge, 14 days after application, rating scale 0-100
Description: (§1) A standard greenhouse herbicide activity screening system was used to evaluate the herbicidal efficacy and crop safety of these test compounds. Seven broadleaf weed species including redroot pigweed (Amaranthus retroflexus, AMARE, velvetleaf (Abutilon theophrasti, ABUTH), sicklepod (Cassia obtusifolia, CASOB), ivyleaf morningglory (Ipomoea hederacea, IPOHE), lambsquarters (Chenopodium album, CHEAL), common ragweed (Ambrosia artemisizfolia L., AMBEL), and cocklebur (Xanthium strumarium, XANST) were used as test species. Four grass weed species including green foxtail (Setaria viridis, SETVI), barnyardgrass (Echinochloa crus-galli, ECHCG), johnsongrass (Sorghum halepense, SORHA), and large crabgrass (Digitaria sanguinalis, DIGSA) were also used. In addition, three crop species, field corn (Zea mays L., var. Dekalb 535, CORN), soybean (Glycine max L., var. Pella 86, SOY), and is upland rice (Oryza sp., var. Tebonnet, RICE) were included.
(§2) All plants were grown in 10 cm square plastic pots which were filled with a sandy loam soil mix. For pre-emerge tests, seeds were planted one day prior to application of the test compounds. For post-emerge tests, seeds were planted 8-21 days prior to the test to allow emergence and good foliage development prior to application of the test substances. At the time of the post-emerge application, plants of all species were usually at the 2-3 leaf stage of development.
(§3) All test compounds Were dissolved in acetone and applied to the test units in a volume of 187 l /ha. Test materials were applied at rates ranging from 15 g ai/ha to 1000 g ai/ha using a track sprayer equipped with a TJ8001E even flow flat fan spray nozzle. Plants were arranged on a shelf so that the top of the canopy (post-emerge) or top of the soil surface (pre-emerge) was 40-45 cm below the nozzle. Pressurized air was used to force the test solution through the nozzle as it was mechanically advanced (via electrically driven chain drive) over the top of all test plants/pots. This application simulates a typical commercial field herbicide application.
(§4) In the post-emerge test, a commercial non-ionic surfactant was also included (0.25% v/v) to enhance wetting of the leaf surfaces of target plants. Immediately after application, test units of the pre-emerge applications were watered at the soil surface to incorporate the test materials. Subsequently, these test units were bottom-watered. Post-emerge test units were always bottom-watered.
(§5) At 14 days after application of the test materials, phytotoxicity ratings were recorded. A rating scale of 0-100 was used as previously described in Research Methods in Weed Science, 2nd edition, B. Truelove, Ed., Southern Weed Science Society, Auburn University, Auburn, Ala. 1977. Briefly, “0” corresponds to no damage and “100” corresponds to complete death of all plants in the test unit. This scale was used both to determine efficacy against weed species and damage to crop species. Herbicide activity data for various compounds of this invention, which are shown by compound No. in Tables 1-8, are shown in Tables 11 and 12.

[2] = system: lambsquarters (Chenopodium album, CHEAL); experiment: as above; details: post-emerge, 14 days after application, rating scale 0-100
Description: as §1, §2, §3, §4, §5

[3] = system: velvetleaf (Abutilon theophrasti, ABUTH); experiment: as above; details: post-emerge, 14 days after application, rating scale 0-100
Description: as §1, §2, §3, §4, §5

[4] = system: ivyleaf morningglory (Ipomoea hederacea, IPOHE); experiment: as above; details: post-emerge, 14 days after application, rating scale 0-100
Description: as §1, §2, §3, §4, §5

[5] = system: sicklepod (Cassia obtusifolia, CASOB); experiment: as above; details: post-emerge, 14 days after application, rating scale 0-100
Description: as §1, §2, §3, §4, §5

[6] = system: barnyardgrass (Echinochloa crus-galli, ECHCG); experiment: as above; details: post-emerge, 14 days after application, rating scale 0-100
Description: as §1, §2, §3, §4, §5

[7] = system: redroot pigweed (Amaranthus retroflexus, AMARE); experiment: as above; details: post-emerge, 14 days after application, rating scale 0-100
Description: as §1, §2, §3, §4, §5

[8] = system: large crabgrass (Digitaria sanguinalis, DIGSA); experiment: as above; details: post-emerge, 14 days after application, rating scale 0-100
Description: as §1, §2, §3, §4, §5

[9] = system: redroot pigweed (Amaranthus retroflexus, AMARE); experiment: Pre-emerge test, greenhouse herbicide activity screening; details: pre-emerge, 14 days after application, scale 0-100
Outline: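 Herbicidal damage is scored 0 (none) to 100 (complete plant death) two weeks after a simulated field spray. Rates span 15–1000 g ai/ha, delivered in acetone at 187 l/ha. For post-emergence treatments, plants have 2–3 leaves and the spray carries 0.25% v/v non-ionic surfactant.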

[10] = system: green foxtail (Setaria viridis, SETVI); experiment: as above; details: pre-emerge, 14 days after application, scale 0-100
Description: as §1, §2, §3, §4, §5

[11] = system: lambsquarters (Chenopodium album, CHEAL); experiment: as above; details: pre-emerge, 14 days after application, scale 0-100
Description: as §1, §2, §3, §4, §5

[12] = system: velvetleaf (Abutilon theophrasti, ABUTH); experiment: as above; details: pre-emerge, 14 days after application, scale 0-100
Description: as §1, §2, §3, §4, §5

[13] = system: ivyleaf morningglory (Ipomoea hederacea, IPOHE); experiment: as above; details: pre-emerge, 14 days after application, scale 0-100
Description: as §1, §2, §3, §4, §5

[14] = system: sicklepod (Cassia obtusifolia, CASOB); experiment: as above; details: pre-emerge, 14 days after application, scale 0-100
Description: as §1, §2, §3, §4, §5

[15] = system: barnyardgrass (Echinochloa crus-galli, ECHCG); experiment: as above; details: pre-emerge, 14 days after application, scale 0-100
Description: as §1, §2, §3, §4, §5

[16] = system: large crabgrass (Digitaria sanguinalis, DIGSA); experiment: as above; details: pre-emerge, 14 days after application, scale 0-100
Description: as §1, §2, §3, §4, §5

[17] = system: field corn (Zea mays L., var. Dekalb 535, CORN); experiment: Post-emerge test, crop safety; details: post-emerge, 14 days after application, rating scale 0-100
Outline: (§6)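 Each test used a mechanized track sprayer delivering 187 l/ha of acetone solution at 15–1000 g ai/ha. Post-emerge foliage at 2–3 leaves was treated with added 0.25% v/v non-ionic surfactant and bottom-watered only. Injury was assessed on day 14, where 100 means total kill.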

[18] = system: upland rice (Oryza sp., var. Tebonnet, RICE); experiment: Post-emerge test, crop safety; details: post-emerge, 14 days after application, rating scale 0-100
Outline: as §6

[19] = system: field corn (Zea mays L., var. Dekalb 535, CORN); experiment: Pre-emerge test, crop safety; details: pre-emerge, 14 days after application, scale 0-100
Outline: (§7)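 Plants grown in 10 cm pots of sandy loam mix received acetone-dissolved compounds through a moving flat-fan nozzle. Doses ranged from 15 to 1000 g ai/ha. Pre-emerge pots were seeded one day earlier, post-emerge pots 8–21 days earlier. Fourteen days on, each pot was graded 0–100 for damage.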

[20] = system: upland rice (Oryza sp., var. Tebonnet, RICE); experiment: Pre-emerge test, crop safety; details: pre-emerge, 14 days after application, scale 0-100
Outline: as §7

Row | SMILES | SETVI phytotoxicity rating ([1]; 63 g ai/ha) | SETVI phytotoxicity rating ([1]; 250 g ai/ha) | CHEAL phytotoxicity rating ([2]; 63 g ai/ha) | CHEAL phytotoxicity rating ([2]; 250 g ai/ha) | ABUTH phytotoxicity rating ([3]; 63 g ai/ha) | ABUTH phytotoxicity rating ([3]; 250 g ai/ha) | IPOHE phytotoxicity rating ([4]; 63 g ai/ha) | IPOHE phytotoxicity rating ([4]; 250 g ai/ha) | CASOB phytotoxicity rating ([5]; 63 g ai/ha) | CASOB phytotoxicity rating ([5]; 250 g ai/ha) | ECHCG phytotoxicity rating ([6]; 63 g ai/ha) | ECHCG phytotoxicity rating ([6]; 250 g ai/ha) | AMARE phytotoxicity rating ([7]; 63 g ai/ha) | AMARE phytotoxicity rating ([7]; 250 g ai/ha) | DIGSA phytotoxicity rating ([8]; 63 g ai/ha) | DIGSA phytotoxicity rating ([8]; 250 g ai/ha) | phytotoxicity rating AMARE ([9]; 63 g ai/ha) | phytotoxicity rating AMARE ([9]; 250 g ai/ha) | phytotoxicity rating SETVI ([10]; 63 g ai/ha) | phytotoxicity rating SETVI ([10]; 250 g ai/ha) | further results
1 | C=Cc1ccc(C(=O)N(C(=O)c2ccc(C=C)cc2)c2c(OC)c(Br)cc(F)c2-n2c(=O)cc(C(F)(F)F)n(C)c2=O)cc1 [2-183] | 0 | 0 | 0 | 80 | 0 | 50 | 0 | 40 | 0 | 0 | 0 | 0 | 0 | 10 | 0 | 0 | 0 | 30 | 0 | 0 | phytotoxicity rating CHEAL ([11]; 63 g ai/ha): 0; phytotoxicity rating CHEAL ([11]; 250 g ai/ha): 40; phytotoxicity rating ABUTH ([12]; 63 g ai/ha): 0; phytotoxicity rating ABUTH ([12]; 250 g ai/ha): 10; phytotoxicity rating IPOHE ([13]; 63 g ai/ha): 0; phytotoxicity rating IPOHE ([13]; 250 g ai/ha): 0; phytotoxicity rating CASOB ([14]; 63 g ai/ha): 0; phytotoxicity rating CASOB ([14]; 250 g ai/ha): 0; phytotoxicity rating ECHCG ([15]; 63 g ai/ha): 0; phytotoxicity rating ECHCG ([15]; 250 g ai/ha): 0; phytotoxicity rating DIGSA ([16]; 63 g ai/ha): 0; phytotoxicity rating DIGSA ([16]; 250 g ai/ha): 0; CORN phytotoxicity rating (crop damage) ([17]; 63 g ai/ha): 0; CORN phytotoxicity rating (crop damage) ([17]; 250 g ai/ha): 0; RICE phytotoxicity rating (crop damage) ([18]; 63 g ai/ha): 0; RICE phytotoxicity rating (crop damage) ([18]; 250 g ai/ha): 0; phytotoxicity rating CORN (crop damage) ([19]; 63 g ai/ha): 0; phytotoxicity rating CORN (crop damage) ([19]; 250 g ai/ha): 0; phytotoxicity rating RICE (crop damage) ([20]; 63 g ai/ha): 0; phytotoxicity rating RICE (crop damage) ([20]; 250 g ai/ha): 0
2 | COc1c(Cl)cc(F)c(-n2c(=O)cc(C(F)(F)F)n(N)c2=O)c1NC(=O)c1ccc2ccccc2c1 [2-184] | 60 | 80 | 100 | 100 | 100 | 100 | 100 | 100 | 100 | 100 | 40 | 50 | 100 | 100 | 20 | 90 | 100 | 100 | 50 | 100 | phytotoxicity rating CHEAL ([11]; 63 g ai/ha): 100; phytotoxicity rating CHEAL ([11]; 250 g ai/ha): 100; phytotoxicity rating ABUTH ([12]; 63 g ai/ha): 100; phytotoxicity rating ABUTH ([12]; 250 g ai/ha): 100; phytotoxicity rating IPOHE ([13]; 63 g ai/ha): 50; phytotoxicity rating IPOHE ([13]; 250 g ai/ha): 100; phytotoxicity rating CASOB ([14]; 63 g ai/ha): 50; phytotoxicity rating CASOB ([14]; 250 g ai/ha): 75; phytotoxicity rating ECHCG ([15]; 63 g ai/ha): 30; phytotoxicity rating ECHCG ([15]; 250 g ai/ha): 80; phytotoxicity rating DIGSA ([16]; 63 g ai/ha): 60; phytotoxicity rating DIGSA ([16]; 250 g ai/ha): 100; CORN phytotoxicity rating (crop damage) ([17]; 63 g ai/ha): 10; CORN phytotoxicity rating (crop damage) ([17]; 250 g ai/ha): 75; RICE phytotoxicity rating (crop damage) ([18]; 63 g ai/ha): 40; RICE phytotoxicity rating (crop damage) ([18]; 250 g ai/ha): 65; phytotoxicity rating CORN (crop damage) ([19]; 63 g ai/ha): 0; phytotoxicity rating CORN (crop damage) ([19]; 250 g ai/ha): 30; phytotoxicity rating RICE (crop damage) ([20]; 63 g ai/ha): 30; phytotoxicity rating RICE (crop damage) ([20]; 250 g ai/ha): 60
